Measurements as given in PMC7265341, “Quantifying CDK inhibitor selectivity in live cells” (Nature Communications, 2020).
Read-outs that look alike come from different tables or passages of the source.

Key:
CDK18/Cyclin Y = CDK18/Cyclin Y (Homo sapiens, UniProt Q07002); experiment: NanoBRET live-cell target engagement, CDK18-NanoLuc/Cyclin Y in HEK-293; assay type: binding; conditions: CDK18/Y, read-out: Inhibition at 10µM (%)
CDK6/Cyclin D1 = CDK6/Cyclin D1 (Homo sapiens, UniProt Q00534); experiment: NanoBRET live-cell target engagement, NanoLuc-CDK6/Cyclin D1 in HEK-293; assay type: binding; conditions: read-out: Inhibition at 10µM (%), CDK6/D1
CDK17/Cyclin Y = CDK17/Cyclin Y (Homo sapiens, UniProt Q00537); experiment: NanoBRET live-cell target engagement, CDK17-NanoLuc/Cyclin Y in HEK-293; assay type: binding; conditions: CDK17/Y, read-out: Inhibition at 10µM (%)
CDK10/Cyclin L2 = CDK10/Cyclin L2 (Homo sapiens, UniProt Q15131); experiment: NanoBRET live-cell target engagement, CDK10-NanoLuc/Cyclin L2 in HEK-293; conditions: read-out: Inhibition at 10µM (%), CDK10/L2
CDK20/Cyclin H = CDK20/Cyclin H (Homo sapiens, UniProt Q8IZL9); experiment: NanoBRET live-cell target engagement, NanoLuc-CDK20/Cyclin H in HEK-293; assay type: binding; conditions: read-out: Inhibition at 10µM (%), CDK20/H
CDK11A/Cyclin L2 = target: T1, CDK11A/Cyclin L2 (Homo sapiens, UniProt Q9UQ88); experiment: NanoBRET live-cell target engagement, CDK11A-NanoLuc/Cyclin L2 in HEK-293; assay type: binding; conditions: CDK11a/L2, read-out: Inhibition at 10µM (%)
T1 sequence (Q9UQ88 1-783): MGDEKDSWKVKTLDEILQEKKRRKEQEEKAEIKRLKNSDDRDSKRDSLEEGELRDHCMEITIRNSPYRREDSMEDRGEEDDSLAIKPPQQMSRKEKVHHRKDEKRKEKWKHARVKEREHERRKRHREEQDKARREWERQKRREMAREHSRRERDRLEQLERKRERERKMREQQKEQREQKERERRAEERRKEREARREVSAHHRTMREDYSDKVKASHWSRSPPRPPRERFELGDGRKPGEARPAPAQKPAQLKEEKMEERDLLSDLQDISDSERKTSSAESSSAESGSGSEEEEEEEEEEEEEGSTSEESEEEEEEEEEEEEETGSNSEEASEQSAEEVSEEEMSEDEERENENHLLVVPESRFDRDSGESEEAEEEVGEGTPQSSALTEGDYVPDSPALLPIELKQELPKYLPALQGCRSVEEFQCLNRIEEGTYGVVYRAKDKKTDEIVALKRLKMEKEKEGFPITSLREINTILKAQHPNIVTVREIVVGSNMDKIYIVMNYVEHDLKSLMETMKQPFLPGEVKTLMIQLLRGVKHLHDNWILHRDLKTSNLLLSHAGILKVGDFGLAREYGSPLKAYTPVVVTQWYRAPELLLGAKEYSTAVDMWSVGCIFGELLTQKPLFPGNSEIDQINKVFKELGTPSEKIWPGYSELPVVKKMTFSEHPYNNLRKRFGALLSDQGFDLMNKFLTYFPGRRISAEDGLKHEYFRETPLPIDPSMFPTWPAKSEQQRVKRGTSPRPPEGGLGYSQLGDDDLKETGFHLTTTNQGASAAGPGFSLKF

CDK12/Cyclin K = CDK12/Cyclin K (Homo sapiens, UniProt Q9NYV4); experiment: NanoBRET live-cell target engagement, CDK12-NanoLuc/Cyclin K in HEK-293; assay type: binding; conditions: CDK12/K, read-out: Inhibition at 10µM (%)
CDK14/Cyclin Y = CDK14/Cyclin Y (Homo sapiens, UniProt O94921); experiment: NanoBRET live-cell target engagement, CDK14-NanoLuc/Cyclin Y in HEK-293; assay type: binding; conditions: CDK14/Y, read-out: Inhibition at 10µM (%)
all 21 human CDKs = experiment: Live-cell selectivity profile across all 21 CDK/cyclin complexes in HEK-293; assay type: binding; conditions: remaining CDK family, live HEK-293; read-out: Collateral CDK (potency)
CDK16/Cyclin Y = CDK16/Cyclin Y (Homo sapiens, UniProt Q00536); experiment: NanoBRET live-cell target engagement, CDK16-NanoLuc/Cyclin Y in HEK-293; assay type: binding; conditions: CDK16/Y, read-out: Inhibition at 10µM (%)
CDK8/Cyclin C = CDK8/Cyclin C (Homo sapiens, UniProt P49336); experiment: NanoBRET live-cell target engagement, NanoLuc-CDK8/Cyclin C in HEK-293; assay type: binding; conditions: CDK8/C, read-out: Inhibition at 10µM (%)
CDK11B/Cyclin L2 = CDK11B/Cyclin L2 (Homo sapiens, UniProt P21127); experiment: NanoBRET live-cell target engagement, CDK11B-NanoLuc/Cyclin L2 in HEK-293; assay type: binding; conditions: CDK11b/L2, read-out: Inhibition at 10µM (%)
CDK13/Cyclin K = CDK13/Cyclin K (Homo sapiens, UniProt Q14004); experiment: NanoBRET live-cell target engagement, CDK13-NanoLuc/Cyclin K in HEK-293; assay type: binding; conditions: CDK13/K, read-out: Inhibition at 10µM (%)
CDK15/Cyclin Y = CDK15/Cyclin Y (Homo sapiens, UniProt Q96Q40); experiment: NanoBRET live-cell target engagement, NanoLuc-CDK15/Cyclin Y in HEK-293; assay type: binding
CDK19/Cyclin C = CDK19/Cyclin C (Homo sapiens, UniProt Q9BWU1); experiment: NanoBRET live-cell target engagement, NanoLuc-CDK19/Cyclin C in HEK-293; conditions: read-out: Inhibition at 10µM (%), CDK19/C

CDK14/Cyclin Y, sequence (O94921 whole entry): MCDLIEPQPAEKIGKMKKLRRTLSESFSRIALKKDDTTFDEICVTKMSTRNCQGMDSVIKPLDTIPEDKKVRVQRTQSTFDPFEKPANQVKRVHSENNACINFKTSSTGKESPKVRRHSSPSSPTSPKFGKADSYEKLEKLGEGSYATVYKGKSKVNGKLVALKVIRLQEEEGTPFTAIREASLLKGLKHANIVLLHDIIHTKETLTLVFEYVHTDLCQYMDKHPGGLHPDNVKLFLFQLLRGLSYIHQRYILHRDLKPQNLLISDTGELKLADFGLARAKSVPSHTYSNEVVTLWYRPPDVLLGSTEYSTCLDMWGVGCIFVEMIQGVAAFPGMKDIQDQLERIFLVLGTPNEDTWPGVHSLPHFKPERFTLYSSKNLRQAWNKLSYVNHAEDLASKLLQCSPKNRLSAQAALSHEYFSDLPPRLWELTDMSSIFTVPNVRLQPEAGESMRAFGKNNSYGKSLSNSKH
CDK14/Cyclin Y, sequence (Q8ND76 whole entry partner): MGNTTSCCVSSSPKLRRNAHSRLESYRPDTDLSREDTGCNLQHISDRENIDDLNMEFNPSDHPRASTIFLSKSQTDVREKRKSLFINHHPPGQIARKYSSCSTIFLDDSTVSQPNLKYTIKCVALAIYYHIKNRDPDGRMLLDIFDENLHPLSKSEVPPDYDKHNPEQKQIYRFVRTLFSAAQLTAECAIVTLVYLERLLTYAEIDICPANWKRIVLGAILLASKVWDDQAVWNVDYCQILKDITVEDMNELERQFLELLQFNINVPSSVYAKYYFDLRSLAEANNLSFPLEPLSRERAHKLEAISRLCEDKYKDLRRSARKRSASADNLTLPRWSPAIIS
CDK10/Cyclin L2, sequence (Q15131 whole entry): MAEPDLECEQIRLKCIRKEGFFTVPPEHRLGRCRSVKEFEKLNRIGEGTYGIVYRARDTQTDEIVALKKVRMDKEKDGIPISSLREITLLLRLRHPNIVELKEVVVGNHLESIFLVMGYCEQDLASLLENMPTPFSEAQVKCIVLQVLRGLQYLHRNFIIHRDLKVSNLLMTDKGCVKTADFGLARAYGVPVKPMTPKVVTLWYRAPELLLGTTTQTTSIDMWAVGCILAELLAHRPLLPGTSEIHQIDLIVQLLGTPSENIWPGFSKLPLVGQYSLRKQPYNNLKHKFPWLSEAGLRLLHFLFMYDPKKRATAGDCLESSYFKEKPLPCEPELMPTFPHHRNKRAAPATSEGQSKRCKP
CDK6/Cyclin D1, sequence (Q00534 whole entry): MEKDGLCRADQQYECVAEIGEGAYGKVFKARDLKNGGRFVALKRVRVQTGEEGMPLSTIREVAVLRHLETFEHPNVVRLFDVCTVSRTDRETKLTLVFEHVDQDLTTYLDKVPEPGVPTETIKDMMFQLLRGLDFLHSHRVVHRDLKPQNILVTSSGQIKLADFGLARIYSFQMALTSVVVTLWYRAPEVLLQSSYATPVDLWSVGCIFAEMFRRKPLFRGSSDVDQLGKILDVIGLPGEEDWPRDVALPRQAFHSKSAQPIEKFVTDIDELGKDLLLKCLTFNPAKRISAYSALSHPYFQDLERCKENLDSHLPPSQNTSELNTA
CDK6/Cyclin D1, sequence (P24385 whole entry partner): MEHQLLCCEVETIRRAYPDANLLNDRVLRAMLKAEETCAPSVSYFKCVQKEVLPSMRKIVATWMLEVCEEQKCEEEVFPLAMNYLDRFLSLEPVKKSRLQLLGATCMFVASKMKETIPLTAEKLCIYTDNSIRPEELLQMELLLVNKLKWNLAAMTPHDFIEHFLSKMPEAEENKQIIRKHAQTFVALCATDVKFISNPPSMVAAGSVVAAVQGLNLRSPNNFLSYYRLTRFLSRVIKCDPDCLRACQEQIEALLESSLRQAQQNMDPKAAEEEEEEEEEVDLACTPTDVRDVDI
CDK12/Cyclin K, sequence (Q9NYV4 1-1481 isoform Q9NYV4-2): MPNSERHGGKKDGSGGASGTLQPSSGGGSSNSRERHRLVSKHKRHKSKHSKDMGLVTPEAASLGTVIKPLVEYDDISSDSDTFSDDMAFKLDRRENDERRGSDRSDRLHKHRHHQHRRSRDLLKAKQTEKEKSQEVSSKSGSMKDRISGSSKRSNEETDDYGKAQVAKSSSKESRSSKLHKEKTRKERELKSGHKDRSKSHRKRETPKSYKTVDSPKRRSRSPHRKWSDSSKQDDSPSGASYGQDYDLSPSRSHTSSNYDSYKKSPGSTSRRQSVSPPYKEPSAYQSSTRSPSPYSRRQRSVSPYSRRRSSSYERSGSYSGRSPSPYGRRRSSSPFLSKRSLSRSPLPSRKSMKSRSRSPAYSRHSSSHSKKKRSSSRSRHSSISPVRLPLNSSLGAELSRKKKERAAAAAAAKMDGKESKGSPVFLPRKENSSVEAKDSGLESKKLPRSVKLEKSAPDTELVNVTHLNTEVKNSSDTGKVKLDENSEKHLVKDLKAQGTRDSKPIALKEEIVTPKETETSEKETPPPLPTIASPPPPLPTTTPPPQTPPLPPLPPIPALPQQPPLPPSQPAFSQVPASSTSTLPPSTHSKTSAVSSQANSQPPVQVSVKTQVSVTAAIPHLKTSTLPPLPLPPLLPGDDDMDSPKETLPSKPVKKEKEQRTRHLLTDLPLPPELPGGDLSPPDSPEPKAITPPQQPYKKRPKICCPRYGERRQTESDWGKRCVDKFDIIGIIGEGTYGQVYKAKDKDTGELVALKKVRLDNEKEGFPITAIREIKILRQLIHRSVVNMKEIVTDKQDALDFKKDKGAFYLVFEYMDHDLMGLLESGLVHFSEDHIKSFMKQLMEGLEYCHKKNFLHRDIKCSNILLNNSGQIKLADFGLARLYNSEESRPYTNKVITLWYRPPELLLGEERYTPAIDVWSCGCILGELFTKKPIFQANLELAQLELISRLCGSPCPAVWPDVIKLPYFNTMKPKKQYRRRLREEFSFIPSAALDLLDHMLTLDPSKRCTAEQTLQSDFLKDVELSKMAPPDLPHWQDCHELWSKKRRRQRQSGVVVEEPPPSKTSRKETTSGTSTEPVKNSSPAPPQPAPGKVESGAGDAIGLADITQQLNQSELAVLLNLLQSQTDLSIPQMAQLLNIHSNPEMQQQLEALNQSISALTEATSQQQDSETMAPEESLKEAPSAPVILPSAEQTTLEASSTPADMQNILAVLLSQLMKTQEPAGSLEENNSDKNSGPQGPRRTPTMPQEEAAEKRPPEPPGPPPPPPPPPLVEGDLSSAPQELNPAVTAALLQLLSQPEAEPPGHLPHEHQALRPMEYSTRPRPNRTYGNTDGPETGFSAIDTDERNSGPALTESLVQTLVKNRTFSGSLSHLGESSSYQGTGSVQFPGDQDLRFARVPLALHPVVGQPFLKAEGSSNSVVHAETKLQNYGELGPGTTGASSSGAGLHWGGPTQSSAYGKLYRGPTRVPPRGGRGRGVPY
CDK12/Cyclin K, sequence (O75909 whole entry partner): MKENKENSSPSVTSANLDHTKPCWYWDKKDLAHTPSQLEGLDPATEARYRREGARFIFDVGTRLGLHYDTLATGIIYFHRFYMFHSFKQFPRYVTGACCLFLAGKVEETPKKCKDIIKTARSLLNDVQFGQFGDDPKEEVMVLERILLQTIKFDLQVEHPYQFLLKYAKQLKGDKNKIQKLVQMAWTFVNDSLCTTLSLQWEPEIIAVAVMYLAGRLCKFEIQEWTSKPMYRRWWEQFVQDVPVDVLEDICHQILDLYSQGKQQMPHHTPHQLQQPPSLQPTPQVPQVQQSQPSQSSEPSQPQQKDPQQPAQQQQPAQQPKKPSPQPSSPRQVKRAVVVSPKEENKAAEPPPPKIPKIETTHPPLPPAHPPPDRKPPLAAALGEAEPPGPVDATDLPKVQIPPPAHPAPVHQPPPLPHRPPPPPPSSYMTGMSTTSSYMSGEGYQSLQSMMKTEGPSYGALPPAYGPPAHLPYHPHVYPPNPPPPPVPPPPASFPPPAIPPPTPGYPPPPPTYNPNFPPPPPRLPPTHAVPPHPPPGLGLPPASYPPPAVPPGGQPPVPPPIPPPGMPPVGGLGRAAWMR
CDK17/Cyclin Y, sequence (Q00537 whole entry): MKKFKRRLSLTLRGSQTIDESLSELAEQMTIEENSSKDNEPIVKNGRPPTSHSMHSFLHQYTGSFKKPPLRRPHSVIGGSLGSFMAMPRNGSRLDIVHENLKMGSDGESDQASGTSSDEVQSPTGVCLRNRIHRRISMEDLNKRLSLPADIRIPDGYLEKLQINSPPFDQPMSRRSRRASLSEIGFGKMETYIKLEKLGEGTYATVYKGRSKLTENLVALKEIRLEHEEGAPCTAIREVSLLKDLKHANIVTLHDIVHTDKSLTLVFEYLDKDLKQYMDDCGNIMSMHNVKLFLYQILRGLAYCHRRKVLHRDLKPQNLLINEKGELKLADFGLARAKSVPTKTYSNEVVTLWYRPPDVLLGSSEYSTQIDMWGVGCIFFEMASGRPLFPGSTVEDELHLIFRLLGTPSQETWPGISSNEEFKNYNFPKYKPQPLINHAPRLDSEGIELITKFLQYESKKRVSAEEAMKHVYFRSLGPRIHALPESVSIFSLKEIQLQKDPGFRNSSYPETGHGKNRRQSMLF
CDK17/Cyclin Y, sequence (Q8ND76 whole entry partner): as the sequence (Q8ND76 whole entry partner) above
CDK15/Cyclin Y, sequence (Q96Q40 whole entry): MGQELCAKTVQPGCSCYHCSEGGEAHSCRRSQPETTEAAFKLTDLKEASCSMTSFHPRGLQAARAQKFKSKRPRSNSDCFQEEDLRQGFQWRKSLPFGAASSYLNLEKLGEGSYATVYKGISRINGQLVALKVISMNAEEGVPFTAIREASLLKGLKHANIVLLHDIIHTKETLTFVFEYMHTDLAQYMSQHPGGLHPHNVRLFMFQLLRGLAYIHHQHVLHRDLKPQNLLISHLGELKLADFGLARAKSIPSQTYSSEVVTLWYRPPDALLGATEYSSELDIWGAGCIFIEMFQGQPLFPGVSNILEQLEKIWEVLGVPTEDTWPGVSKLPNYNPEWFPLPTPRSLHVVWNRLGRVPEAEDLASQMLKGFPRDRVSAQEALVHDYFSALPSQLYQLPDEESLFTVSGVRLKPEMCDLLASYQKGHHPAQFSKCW
CDK15/Cyclin Y, sequence (Q8ND76 whole entry partner): as the sequence (Q8ND76 whole entry partner) above

Question: How did the inhibition at 10 µM (CDK18/Cyclin Y; average) turn out when `NS(=O)(=O)c1ccc(Nc2nc(OCC3CCCCC3)c3nc[nH]c3n2)cc1` [NU6102] was run?
Answer: 30.2%

Question: What about the inhibition at 10 µM (CDK18/Cyclin Y; experiment 1) of the same compound?
Answer: 20.4%

Question: What about the inhibition at 10 µM (CDK18/Cyclin Y; experiment 2) of the same compound?
Answer: 40.1%

Question: And the inhibition at 10 µM (CDK6/Cyclin D1; average)?
Answer: 82.2%

Question: And the inhibition at 10 µM (CDK6/Cyclin D1; experiment 1)?
Answer: 70.6%

Question: And the inhibition at 10 µM (CDK6/Cyclin D1; experiment 2)?
Answer: 93.7%

Question: And the inhibition at 10 µM (CDK17/Cyclin Y; average)?
Answer: 44.7%

Question: What about the inhibition at 10 µM (CDK17/Cyclin Y; experiment 1) of the same compound?
Answer: 40.2%

Question: And the inhibition at 10 µM (CDK17/Cyclin Y; experiment 2)?
Answer: 49.2%

Question: What about the inhibition at 10 µM (CDK10/Cyclin L2; average) of the same compound?
Answer: 64%

Question: What about the inhibition at 10 µM (CDK10/Cyclin L2; experiment 1) of the same compound?
Answer: 47.6%

Question: What about the inhibition at 10 µM (CDK10/Cyclin L2; experiment 2) of the same compound?
Answer: 80.4%

Question: What about the inhibition at 10 µM (CDK20/Cyclin H; experiment 1) of the same compound?
Answer: 59%

Question: What about the inhibition at 10 µM (CDK20/Cyclin H; experiment 2) of the same compound?
Answer: 76.6%

Question: And the inhibition at 10 µM (CDK11A/Cyclin L2; average)?
Answer: 14%

Question: And the inhibition at 10 µM (CDK11A/Cyclin L2; experiment 1)?
Answer: 10.4%

Question: And the inhibition at 10 µM (CDK11A/Cyclin L2; experiment 2)?
Answer: 17.6%

Question: And the inhibition at 10 µM (CDK12/Cyclin K; average)?
Answer: 3.2%

Question: And the inhibition at 10 µM (CDK12/Cyclin K; experiment 1)?
Answer: 8.2%

Question: And the inhibition at 10 µM (CDK12/Cyclin K; experiment 2)?
Answer: -1.8%

Question: And the inhibition at 10 µM (CDK14/Cyclin Y; average)?
Answer: 13.8%

Question: What about the inhibition at 10 µM (CDK14/Cyclin Y; experiment 1) of the same compound?
Answer: 9.9%

Question: What about the inhibition at 10 µM (CDK14/Cyclin Y; experiment 2) of the same compound?
Answer: 17.7%

Question: And the IC50 (all 21 human CDKs)?
Answer: > 1 µM

Question: And the inhibition at 10 µM (CDK16/Cyclin Y; experiment 1)?
Answer: 66.5%

Question: And the inhibition at 10 µM (CDK16/Cyclin Y; experiment 2)?
Answer: 85.2%

Question: What about the inhibition at 10 µM (CDK8/Cyclin C; average) of the same compound?
Answer: 11.3%

Question: And the inhibition at 10 µM (CDK8/Cyclin C; experiment 1)?
Answer: 17.2%

Question: What about the inhibition at 10 µM (CDK8/Cyclin C; experiment 2) of the same compound?
Answer: 5.4%

Question: What about the inhibition at 10 µM (CDK11B/Cyclin L2; average) of the same compound?
Answer: 27.3%

Question: What about the inhibition at 10 µM (CDK11B/Cyclin L2; experiment 1) of the same compound?
Answer: 13.2%

Question: What about the inhibition at 10 µM (CDK11B/Cyclin L2; experiment 2) of the same compound?
Answer: 41.4%

Question: What about the inhibition at 10 µM (CDK13/Cyclin K; average) of the same compound?
Answer: 18.1%

Question: And the inhibition at 10 µM (CDK13/Cyclin K; experiment 1)?
Answer: 10.3%

Question: And the inhibition at 10 µM (CDK13/Cyclin K; experiment 2)?
Answer: 25.9%

Question: And the inhibition at 10 µM (CDK15/Cyclin Y; CDK15/Y, average, read-out: Inhibition at 10µM (%))?
Answer: 28.3%

Question: What about the inhibition at 10 µM (CDK15/Cyclin Y; CDK15/Y, experiment 2, read-out: Inhibition at 10µM (%)) of the same compound?
Answer: 10.5%

Question: And the inhibition at 10 µM (CDK15/Cyclin Y; read-out: Inhibition at 10µM (%), CDK15/Y, experiment 1)?
Answer: 46.2%

Question: And the inhibition at 10 µM (CDK19/Cyclin C; average)?
Answer: 13%

Question: What about the inhibition at 10 µM (CDK19/Cyclin C; experiment 1) of the same compound?
Answer: 21%

Question: What about the inhibition at 10 µM (CDK19/Cyclin C; experiment 2) of the same compound?
Answer: 4.9%
